From patent publication US20040077654A1, “Aryl piperidine and piperazine derivatives as inducers of ldl-receptor expression” (priority 2003, published 2004) come the findings set out here.

Tested on in the first series: not given
Assay: not given
Conditions: not given
For the compound `CCc1ccc(C2CCN(CCCCNC(=O)c3ccc(NC(=O)c4ccc(Cl)cc4)cc3)CC2)c(OC)c1` [Example 4, 4-(4-chloro-benzoylamino)-N-{4-[4-(4-ethyl-2-methoxy-phenyl)-piperidin-1-yl]-butyl}-benzamide], the melting point (commonly the temperature, or range, at which the solid turns liquid) was 235 °C. Same read-out and setting: the result for `Cn1cc(C2CCN(CCCCNC(=O)c3ccc(-c4ccc(C#N)cc4)cc3)CC2)c2ccccc21` [Example 40, 4′-Cyano-biphenyl-4-carboxylic acid {4-[4-(1-methyl-1H-indol-3-yl)-piperidin-1-yl]-butyl}-amide] reads 180 °C; that for `CCOc1cc(CC)ccc1C1CCN(CCCCNC(=O)c2ccc(NC(=O)c3ccc(Cl)cc3)cc2)CC1` [Example 3, 4-(4-chloro-benzoylamino)-N-{4-[4-(2-ethoxy-4-ethyl-phenyl)-piperidin-1-yl]-butyl}-benzamide], 250 °C.

With `COc1cc(C)ccc1N1CCN(CCCCNC(=O)c2ccc(NC(=O)c3ccc(Cl)cc3)cc2)CC1.Cl` (hydrate or solvate), the melting point was determined as 227 °C.

`O=C(NCCCCN1CCC(c2cccc3ccccc23)CC1)c1ccc(NC(=O)c2ccc(Cl)cc2)cc1` [Example 11, 4-(4-chloro-benzoylamino)-N-[4-(4-naphthalen-1-yl-piperidin-1-yl]-butyl}-benzamide] displayed a melting point of 264 °C. The compound `CCOc1cc(C)ccc1C1CCN(CCCCNC(=O)c2ccc(C=Cc3ccc(C(F)(F)F)cc3)cc2)CC1` [Example 33, N-{4-[4-(2-Ethoxy-4-methyl-phenyl)-piperidin-1-yl]-butyl}-4-[2-(4-trifluoromethylphenyl)-vinyl]-benzamide] gave a melting point of 210 °C. On the same count and under the same terms, with `CCOc1cc(C)ccc1C1CCN(CCCCNC(=O)c2ccc3oc(-c4ccc(C(F)(F)F)cc4)cc3c2)CC1` [Example 29, 2-(4-Trifluoromethyl-phenyl)-benzofuran-5-carboxylic Acid {4-[4-(2-ethoxy-4-methyl-phenyl)-piperidin-1-yl]-butyl}-amide] the figure was 200 °C; with `Cn1cc(C2CCN(CCCCNC(=O)c3ccc(-c4ccc(C(F)(F)F)cc4)cc3)CC2)c2ccccc21` [Example 14, 4′-Trifluoromethyl-biphenyl-4-carboxylic acid {4-[4-(1−methyl-1H-indol-3-yl)-piperidin-1-yl]-butyl}-amide], 205 to 206 °C.

`CCOc1cc(C)ccc1C1CCN(CCCCNC(=O)c2ccc3c(c2)cc(-c2ccc(Cl)cc2)n3C)CC1` [Example 28, 2-(4-Chloro-phenyl)-1-methyl-1H-indole-5-carboxylic Acid {4-[4-(2-ethoxy-4-methyl-phenyl)-piperidin-1-yl]-butyl}-amide] displayed a melting point of 174 to 175 °C.

Compound `CCOc1cc(C)ccc1NC1CCN(CCCCNC(=O)c2ccc(-c3ccc(C(F)(F)F)cc3)cc2)CC1` [Example 19, 4′-Trifluoromethyl-biphenyl-4-carboxylic acid {4-[4-(2-ethoxy-4-methyl-phenylamino)-piperidin-1-yl]-butyl}-amide] yielded a melting point of 162 °C. On the same count and under the same terms, the result for `O=C(NCCCCN1CCC(c2csc3ccccc23)CC1)c1ccc(-c2ccc(C(F)(F)F)cc2)cc1` [Example 16, 4′-Trifluoromethyl-biphenyl-4-carboxylic acid [4-(4-benzo[b]thiophen-3-yl-piperidin-1-yl)-butyl]-amide] reads 264 °C. Still for that read-out and setting: the result for `COc1cc(C(C)C)ccc1C1CCN(CCCCNC(=O)c2sc(-c3ccc(C(F)(F)F)cc3)nc2C)CC1` [Example 27, 4-Methyl-2-(4-trifluoromethyl-phenyl)-thiazole-5-carboxylic acid {4-[4-(4-isopropyl-2-methoxy-phenyl)-piperidin-1-yl]-butyl}-amide] reads 170 °C; that for `COc1cc(C(C)C)ccc1C1CCN(CCCCNC(=O)c2ccc(NC(=O)c3ccc(Cl)cc3)cc2)CC1` [Example 5, 4-(4-chloro-benzoylamino)-N-{4-[4-(4-isopropyl-2-methoxy-phenyl)-piperidin-1-yl]-butyl}-benzamide], 241 °C. On the same count and under the same terms, the result for `CCOc1cc(C)ccc1C1CCN(CCCCNC(=O)c2ccc(NC(=O)c3ccc(Cl)cc3)cc2)CC1` [Example 2, 4-(4-chloro-benzoylamino)-N-{4-[4-(2-ethoxy-4-methyl-phenyl)-piperidin-1-yl]-butyl}-benzamide] reads 254 °C; that for `CCOc1cc(C)ccc1C1CCN(CCCCNS(=O)(=O)c2ccc(-c3ccc(C(F)(F)F)cc3)cc2)CC1.Cl`, 188 to 190 °C. `CCOc1cc(C)ccc1C1CCN(CCCCNC(=O)c2ccc3oc(-c4ccc(Cl)cc4)cc3c2)CC1` [Example 30, 2-(4-Chloro-phenyl)-benzofuran-5-carboxylic acid {4-[4-(2-ethoxy-4-methylphenyl)-piperidin-1-yl]-butyl}-amide] registered a melting point of 145 to 158 °C. Still for that read-out and setting: with `CCOc1ccc(CC2CCN(CCCCNC(=O)c3ccc(-c4ccc(C(F)(F)F)cc4)cc3)CC2)c(OCC)c1` [Example 38, 4′-trifluoromethyl-biphenyl-4-carboxylic acid {4-[4-(2,4-diethoxy-benzyl)-piperidin-1-yl]-butyl}amide] the figure was 136 to 137 °C. On the same count and under the same terms, the result for `COc1ccc(C2CCN(CCCCNC(=O)c3ccc(NC(=O)c4ccc(Cl)cc4)cc3)CC2)c(OC)c1.Cl` reads 238 °C; that for `O=C(NCCCCN1CCC(c2ccc3ccccc3c2)CC1)c1ccc(NC(=O)c2ccc(Cl)cc2)cc1` [Example 9, 4-(4-chloro-benzoylamino)-N-[4-(4-naphthalen-2-yl-piperidin-1-yl]-butyl}-benzamide], 270 °C; that for `CCOc1cc(C)ccc1N(C1CCN(CCCCNC(=O)c2ccc(-c3ccc(C(F)(F)F)cc3)cc2)CC1)S(=O)(=O)c1ccccc1` [Example 20, 4′-Trifluoromethyl-biphenyl-4-carboxylic Acid (4-{4-[benzenesulfonyl-(2-ethoxy-4-methyl-phenyl)-amino]-piperidin-1-yl}butyl)-amide], 110 °C.

`O=C(NCCCCN1CCC(c2ccc3c(c2)OCO3)CC1)c1ccc(NC(=O)c2ccc(Cl)cc2)cc1` [Example 8, 4-(4-chloro-benzoylamino)-N-[4-(4-benzo[1,3]dioxol-5-yl-piperidin-1-yl]-butyl}-benzamide] registered a melting point of 238 to 248 °C. On the same count and under the same terms, the result for `CCOc1cc(C(C)C)ccc1C1CCN(CCCCNC(=O)c2ccc(NC(=O)c3ccc(Cl)cc3)cc2)CC1` [Example 6, 4-(4-chloro-benzoylamino)-N-{4-[4-(2-ethoxy-4-isopropyl-phenyl)-piperidin-1-yl]-butyl}-benzamide] reads 242 °C; that for `O=C(NCCCCN1CCC(c2ccc3c(c2)CCCC3)CC1)c1ccc(NC(=O)c2ccc(Cl)cc2)cc1` [Example 10, 4-(4-chloro-benzoylamino)-N-{4-[4-(5,6,7,8-tetrahydro-naphthalen-2-yl)-piperidin-1-yl]-butyl}-benzamide], 285 °C; that for `CCOc1cc(C)ccc1C1CCN(CCCCC(=O)Nc2ccc(-c3ccc(C(F)(F)F)cc3)cc2)CC1` [Example 24, 5-[4-(2-Ethoxy-4-methyl-phenyl)-piperidin-1-yl]-pentanoic acid (4′-trifluoromethyl-biphenyl-4-yl)-amide], 178 °C. Still for that read-out and setting: the result for `CCOc1cc(C)ccc1C1CCN(CCCCNC(=O)c2ccc(OCc3ccc(C(F)(F)F)cc3)cc2)CC1` [Example 34, N-{4-[4-(2-Ethoxy-4-methyl-phenyl)-piperidin-1-yl]-butyl}4-(4-trifluoromethyl-benzyloxy)-benzamide] reads 180 to 182 °C; that for `CSc1ccccc1C1CCN(CCCCNC(=O)c2ccc(-c3ccc(C(F)(F)F)cc3)cc2)CC1` [Example 13, 4′-Trifluoromethyl-biphenyl-4-carboxylic acid {4[4-(2-methylsulfanyl-phenyl)-piperidin-1-yl]-butyl}-amide], 191 to 192 °C.

Another series relates to LDL-r promoter. Description: LDL-r promoter luciferase reporter gene assay in stably transfected HepG2 cells. In kind it is cell-based, human. The conditions noted are these: HepG2 cells with LDL-r promoter/luciferase construct; 24 hours incubation in RPMI with 2% lipoprotein-deficient serum; induction of luciferase activity; read-out: In vitro (IC50). The method, then: The ability of the compounds of the invention to induce LDL-r expression by human hepatocytes in vitro is determined using a human hepatocarcinoma cell line, Hep G2, as a model system. A reporter gene assay using the LDL-R promotor in front of the Luciferase reporter gene is used as a primary screen.
HepG2 cells, stably transfected with a construct comprising the LDL-r promoter and the luciferase reporter gene, were seeded at 50.000 cells/well in 96 well plates. After 1 day, cells were incubated with compounds for 24 hours in RPMI medium containing 2% of lipoprotein-deficient serum. Compounds were tested from 10^−6M to 10^−9M. Cell lysates were prepared and the luciferase activity was measured by the luciferase assay system (Promega). Induction of luciferase activity was calculated taking untreated cells as control and ED50 of each compounds was determinated compared to the ED50 of an internal standart.
For the compound `O=C(NCCCCN1CCC(c2ccc3c(c2OCC2CC2)CCCC3)CC1)c1ccc2oc(-c3ccc(Cl)c(Cl)c3)cc2c1` [Example 31, 2-(3,4-Dichloro-phenyl)-benzofuran-5-carboxylic acid {4-[4-(1-cyclopropylmethoxy-5,6,7,8-tetrahydro-naphtalen-2-yl)-piperidin-1-yl]-butyl}-amide], the EC50 was found to be 20 nM. For the compound `O=C(NCCCCN1CCC(c2ccc3c(c2OCC2CC2)CCCC3)CC1)c1ccc2oc(-c3ccc(C(F)(F)F)nc3)cc2c1` [Example 32, 2-(6-Trifluoromethyl-pyridin-3-yl)-benzofuran-5-carboxylic acid {4-[4-(1-cyclopropylmethoxy-5,6,7,8-tetrahydronaphtalen-2-yl)-piperidin-1-yl]-butyl}-amide], the EC50 stood at 13 nM. Still for that read-out and setting: the result for `COc1c(C2CCN(CCCCOc3ccc(-c4ccc(C#N)cc4)cc3)CC2)ccc2ccccc12` [Example 26, 4′-{4-[4-(1-Methoxy-naphtalen-2-yl)-piperidin-1-yl]-butoxy}-biphenyl-4-carbonitrile] reads 1 nM. Same read-out and setting: the result for `Cc1cc(C2CCN(CCCCNC(=O)c3ccc(-c4ccc(C(F)(F)F)cc4)cc3)CC2)c(C)cc1OCc1ccccn1` [Example 7] reads 4 nM.

Still in this series, the particulars now being: Homo sapiens; HepG2 cells with LDL-r promoter/luciferase construct; 24 hours incubation in RPMI with 2% lipoprotein-deficient serum; induction of luciferase activity; read-out: In vitro (IC50).
Consider `Cn1cc(C2CCN(CCCCNC(=O)c3ccc(-c4ccc(C#N)cc4)cc3)CC2)c2ccccc21` [Example 40, 4′-Cyano-biphenyl-4-carboxylic acid {4-[4-(1-methyl-1H-indol-3-yl)-piperidin-1-yl]-butyl}-amide], for which the EC50 came to 10 nM. On to `CCOc1cc(C)ccc1C1CCN(CCCCNC(=O)c2ccc(C=Cc3ccc(C(F)(F)F)cc3)cc2)CC1` [Example 33, N-{4-[4-(2-Ethoxy-4-methyl-phenyl)-piperidin-1-yl]-butyl}-4-[2-(4-trifluoromethylphenyl)-vinyl]-benzamide], for which the EC50 is 30 nM.

Consider `CCOc1cc(C)ccc1N(C1CCN(CCCCNC(=O)c2ccc(-c3ccc(C(F)(F)F)cc3)cc2)CC1)S(=O)(=O)c1ccccc1` [Example 20, 4′-Trifluoromethyl-biphenyl-4-carboxylic Acid (4-{4-[benzenesulfonyl-(2-ethoxy-4-methyl-phenyl)-amino]-piperidin-1-yl}butyl)-amide], for which the EC50 came to 117 nM.
